What was measured:
[1] = system: arteriovenous shunt thrombosis model in rats; assay: Arteriovenous shunt thrombosis model in rats; format: in vivo; conditions: 10 mg/kg, i.v.
MCAO model of SD rats [2] = assay: Rat model of chronic ischemic stroke; format: in vivo; conditions: chronic IS rats
MCAO model of SD rats [3] = assay: Rat model of acute ischemic stroke; format: in vivo; conditions: acute IS rats, 10 mg/kg
[4] = system: permanent cerebral ischemic stroke in rats; assay: Rat model of permanent ischemic stroke; format: in vivo, SD rats; conditions: permanent IS rats
mice = assay: Bleeding time of tail clipping in mice; format: in vivo; conditions: 5 mg/kg

Row | Compound | inhibition (%) of dry thrombus [1] | inhibition (%) of wet thrombus [1] | reduction of cerebral infarction volume (MCAO model of SD rats [2]; 5.0 mg/kg) | misstep frequency (grid test) (MCAO model of SD rats [2]; day 14 after modeling) | reduction of cerebral infarction volume vs model group (MCAO model of SD rats [3]) | reduction of cerebral infarction volume vs model group ([4]; 10 mg/kg) | NSS value ([4]; day 1 after surgery) | Bleeding time (mice)
1 | CCCC[C@@H]1OC(=O)c2ccccc21 [S-NBP] | 25.95% | 33.24% | – | – | – | – | – | –
2 | CCCCC1OC(=O)c2ccccc21 (stereo not drawn) [NBP, R,S-3-n-butylphthalide] | – | – | 32% | significantly higher than that in the sham group | 35% | 7% | lower than that of the model group but without significant difference | –
3 | CCCCC(O)c1ccccc1C(=O)[O-].[K+] (stereo not drawn) [PHPB, potassium 2-(1-hydroxypentyl)-benzoate] | 11.32% | 15.39% | – | – | – | – | – | –
4 | CC(=O)Oc1ccccc1C(=O)O [ASP, O-acetoxybenzoic acid] | 39.67% | 40.74% | – | – | – | – | – | 22.52 ± 1.31 min
